Reference: patent publication US10865176B2, “Small molecule modulators of microRNA-34a” (The Chinese University of Hong Kong, priority 2012, dated 2020)
Marks after values point to notes of the source that are not given here.

Tests used:
Huh7 cells = test: MTT cell viability assay, Huh7; format: cell-based, human; conditions: Huh7, 10 μM
Procedure: Cell viability was measured by 3-(4,5-Dimethylthiazol-2-yl)-2,5-diphenyltetrazolium bromide (MTT) assay. 1×10^3 Cells were seeded in triplicate on a 96 well plate and were allowed to grow for indicated time points. At each time point a set of cells were incubated with 0.5 mg/ml MTT diluted in 1×PBS. After 2 to 4 h incubation, the MTT solution was removed. The insoluble MTT was dissolved in DMSO. Absorbance at 570 nm was measured by an ELISA plate reader.

miR-34a [1] = test: qRT-PCR of pri-miR-34a and miR-34a in xenografted tumors; format: in vivo, nude mice; conditions: excised tumors after 24 d gavage
Procedure: (§1) Total RNA from cell cultures and HCC xenograft tumors were extracted using Trizol (Invitrogen) according to manufacturer's protocols. Total RNAs were dissolved into nuclease-free ddH2O. For protein extraction, cells and HCC xenograft tumors were lysed in 1×RIPA buffer with 1 mM PMSF and 1× complete protease inhibitor cocktail (Roche, Indianapolis, Ind.). Both RNA and protein were stored at −80° C.
(§2) Total RNA was reversely transcribed into cDNAs using High Capacity cDNA Reverse Transcription Kit (Applied Biosystems, Foster city, CA, USA) and nude RT kit (Invitrogen) individually. qRT-PCR was performed using SYBR Green PCR master mix (TaKaRa, Dalian, China). GAPDH was used as an endogenous control. For measuring miR-34a expression level, qPCR was performed by using SYBR Green PCR master mixture (Invitrogen) and U6 was used as the internal control. All samples were normalized to internal controls and fold changes were calculated by relative quantification (2^−ΔΔct).
(§3) Tumor volume was calculated as [(Length×Width×Height)[…]]. Treatment was continued for 24 d. Finally, all mice were sacrificed and tumors were excised. Tumor weight was recorded.

HepG2 xenografted tumors = test: CD31 immunohistochemical staining of HepG2 xenografted tumors (microvessel density); format: in vivo, nude mice; conditions: Rubone treated tumors; control group 67.50; p=0.0098
Procedure: Immunohistochemical staining was performed on HepG2 xenografted tumor tissues with CD31 specific antibody (Cat #: Y059114, Abcam, Cambridge, Mass.). Subcutaneous tumor tissue sections were incubated with anti-CD31 overnight at 4° C. Mean microvessel density was calculated by averaging vessel counts from three random fields per slide.

Cyclin D1 and Bcl-2 [2] = test: qRT-PCR of Cyclin D1 and Bcl-2 in xenografted tumors; format: in vivo, nude mice; conditions: excised tumors after 24 d gavage
Procedure: as §1, §2, §3

[3] = system: miR-7a, miR-21, miR-23a, miR-29c, miR-34c, miR-219, miR-145, miR-192, miR-215; test: qRT-PCR of a panel of other miRNAs in Huh7 cells; format: cell-based, human; conditions: 10 μM, 48 h
Procedure: as §1, §2

Cyclin D1 and Bcl-2 [4] = test: Expression of miR-34a targets Cyclin D1 and Bcl-2 (qRT-PCR, western blotting) in HCC cells; format: cell-based, human; conditions: 10 μM, 48 h (RNA) or 72 h (protein)
Procedure: as §1, §2
Protein quantification was performed using BCA protein assay kit (Thermo Fisher Scientific, Rockford, Ill., USA). 25-50 μg protein was separated by SDS-PAGE (sodium dodecyl sulfate-polyacrylamide gel electrophoresis) and transferred to PVDF membranes (Bio-Rad). […] Protein expression was detected by autoradiography using Amersham ECL Plus™ Western Blotting Detection Reagents (GE Healthcare, Uppsala, Sweden).

HepG2 xenografted tumor = test: HepG2 xenografted nude mice model, tumor growth; format: in vivo; conditions: for Tumor growth inhibition (%) / Tumor weight (g): gavage once every two days; for Tumor growth inhibition (%): 24 d; for Tumor weight (g): day 24, mean (95% CI)
Procedure: as §3

miR-34a [5] = test: miR-34a reporter luciferase assay in Huh7 cells; format: cell-based, human
Procedure: The pMIR-REPORT™ luciferase plasmid (1 μg; Ambion) was sequentially double digested with Sac I and Hind III (10 units each, 50 μL reaction; NEB) and was gel purified. Double stranded insert DNA encoding the miR-34a binding site was synthesized through standard oligonucleotide synthesis methods. The sequences used were Forward: 5′z […]-3′ (SEQ ID NO:1) and Reverse: 5′: […]-3′ (SEQ ID NO:2). The insert was hybridized (heated to 95° C., and cooled to 4° C. over 30 min, then held at 4° C. for 60 min) and ligated with T4 ligase (200 units, 10 μL reaction, 1:10 vector/insert ratio; NEB) into the digested pMIR-REPORT™ luciferase vector. Positive colonies were selected by PCR colony screens, and the construction of the pMIR-REPORT™-miR-34a vector was confirmed by double enzyme digestion with NheI, MluI and Nhe I, Hind III (NEB). The luciferase reporter vector containing the miR-34a promoter was kindly provided by Prof. Mendell J T from Johns Hopkins University (21).
Huh7 cells were seeded into 96-well plates 12 h prior to transfection. MiR-34a reporter and the control vector were respectively co-transfected with Renilla luciferase pRL-SV40 into Huh7 cells. All transfections were performed in triplicate. The cells were incubated at 37° C. for 4 h followed by the replacement of transfection media with standard DMEM growth media with 10 μM of the natural products library (NPL) compounds (Tim Tec; 0.1% DMSO final concentration). This library contains 640 compounds including natural products and their derivatives. After 48 h of incubation, the media was removed and cells were lysed and the luciferase signals were measured by luciferase assay as described below.
MiR-34a reporter, the luciferase reporter vector containing miR-34a promoter and the control vectors were transfected into HCC cells 12 h before compound treatment. The Renilla luciferase vector pRL-SV40 was co-transfected as an internal control. HCC cells were then treated with compound for 48-72 h. The luciferase activity was measured by Dual Luciferase Reporter Assay (Promega) with a Wallac VICTOR^3V luminometer. The ratio of firefly luciferase to Renilla expression was calculated for each of the triplicates.

`COc1cc(O)c(C(=O)/C=C/c2cc(OC)c(OC)cc2OC)c(OC)c1` [Rubone, 2′-Hydroxy-2,4,4′,5,6′-pentamethoxychalcone] was tested, and the “cell growth (MTT)” value (Huh7 cells) was “significantly inhibited the growth”, the “pri-miR-34a and miR-34a levels in xenografted tumors” value (miR-34a [1]) was “up-regulated” and the “tube score mean (microvessels, CD31 staining)” value (HepG2 xenografted tumors) was 12.50. The “Cyclin D1 and Bcl-2 expression in xenografted tumors” value (Cyclin D1 and Bcl-2 [2]) was “down-regulated”, the “expression of other p53 regulated miRNAs (miR-34c, miR-145, miR-192, miR-215)” value [3] was “did not change” and the “expressions of miR-7a, miR-21, miR-23a, miR-29c, miR-34c and miR-219” value [3] was “not affected”. For the same compound, the “mRNA and protein levels of Cyclin D1 and Bcl-2” value (Cyclin D1 and Bcl-2 [4]; HepG2 cells) was “significantly reduced”, the “mRNA and protein levels of Cyclin D1 and Bcl-2” value (Cyclin D1 and Bcl-2 [4]; Huh7 cells) was “significantly reduced” and the “Tumor growth inhibition (%)” value (HepG2 xenografted tumor; 20 mg/kg) was 78.27%. For the same compound, the “Tumor weight (g)” value (HepG2 xenografted tumor; 20 mg/kg) was 0.256 (95% CI = 0.08 − 0.42)** g, the “Tumor growth inhibition (%)” value (HepG2 xenografted tumor; 50 mg/kg) was 89.64% and the “Tumor weight (g)” value (HepG2 xenografted tumor; 50 mg/kg) was 0.122 (95% CI = 0.067 − 0.18)** # g. The “tumor growth inhibition compared with Sorafenib” value (HepG2 xenografted tumor; same dosage of 50 mg/kg, p=0.047 vs. sorafenib treated group) was “stronger tumor growth inhibition than Sorafenib”, the “function as miR-34a activator, re-assayed in triplicate with miR-34a reporter system” value (miR-34a [5]) was “functions as the miR-34a activators are confirmed” and the IC50 (miR-34a [5]; Homo sapiens, Huh-7, 48 h) was 3.8 µM. For the same compound, the “luciferase activities of miR-34a reporter” value (miR-34a [5]; indicated concentrations, 48 h) was “inhibited the luciferase activities in a dose-dependent manner”.
